Test results taken from patent publication US7271288B2, “Aromatic compounds” (Kyushu University, National University Corporation, priority 2002, dated 2007).

Legend:
[1] = Solubility observed when preparing samples for fluorescence measurement; type: physicochemical
Description: Gels were prepared from compounds 1 and 2 with cyclohexane (hereinafter referred to as cyclohexane gel(s)). The concentration of compound 1 or 2 in cyclohexane was adjusted to 5 mM. Chloroform solutions of compounds 1, 2 and 3 (5×10^−5 M) were also prepared. The fluorescence spectroscopic measurement was carried out for each gel. The excitation wavelength λex for the measurements was 340 nm.
As both compounds 1 and 2 were soluble in hot cyclohexane, solid samples were prepared by dissolving the compounds in cyclohexane followed by removing the solvent with a rotary evaporator at room temperature. Each of the solid samples thus prepared was then subjected to fluorescence spectroscopic measurement. As shown in FIG. 8 and FIG. 9, the difference in the spectra reflecting the difference in the gel was also observed in the solid state. Therefore, it was confirmed that the assembly structure of the gel is maintained even in the solid state.

Gelation test = type: physicochemical; parameters: key to gelation ability: I = insoluble; S = soluble; P = precipitate; G = gel; pG = partial gel; details: for gelation ability: 10 mM, 30 minutes at room temperature
Description: To a septum-capped test tube (i.d. 5 mm) were added compounds 1 or 2 and a solvent (100 μl) so that the concentration of the resultant solution was 10 mM and the solution was sonicated and heated with a heat gun until the solid was dissolved. After standing for 30 minutes at room temperature, the sample was turned upside down and judged visually. […] The samples with no observed gel formation were subjected to standing at a lower temperature for further judgment.

| Structure (SMILES) | solubility ([1]; chloroform) | solubility ([1]; cyclohexane) | gelation (Gelation test; solvents not specified) | solubility (Gelation test; solvents not specified) | solubility ([1]; hot cyclohexane) | gelation ability (Gelation test; Benzene) | gelation ability (Gelation test; Carbon tetrachloride) | gelation ability (Gelation test; Chloroform) | gelation ability (Gelation test; Cyclohexane) | gelation ability (Gelation test; Diphenyl ether) | gelation ability (Gelation test; Ethanol) | gelation ability (Gelation test; Ethyl acetate) | gelation ability (Gelation test; Hexane) | gelation ability (Gelation test; Hexanol) | gelation ability (Gelation test; Octane) | gelation ability (Gelation test; Tetrahydrofuran) | gelation ability (Gelation test; Toluene) | gelation ability (Gelation test; p-Xylene) |
| --- | --- | --- | --- | --- | --- | --- | --- | --- | --- | --- | --- | --- | --- | --- | --- | --- | --- | --- |
| CCCCCCCCCCCCOc1cc2c3cc(OCCCCCCCCCCCC)c(OCCCCCCCCCCCC)cc3c3cc(OCCCCCCCCCCCC)c(OCCCCCCCCCCCC)cc3c2cc1OCCCCCCCCCCCC [Compound 3, reference compound] | soluble | soluble | no gelation was observed | high solubility |  |  |  |  |  |  |  |  |  |  |  |  |  |  |
| CCCCCCCCCCCCNC(=O)COc1cc2c3cc(OCC(=O)NCCCCCCCCCCCC)c(OCC(=O)NCCCCCCCCCCCC)cc3c3cc(OCC(=O)NCCCCCCCCCCCC)c(OCC(=O)NCCCCCCCCCCCC)cc3c2cc1OCC(=O)NCCCCCCCCCCCC [Compound 1] |  |  |  |  | soluble | S | S | S | G | S | I | I | G | P | G | S | S | G |
| CCCCNC(=O)COc1cc2c3cc(OCC(=O)NCCCC)c(OCC(=O)NCCCC)cc3c3cc(OCC(=O)NCCCC)c(OCC(=O)NCCCC)cc3c2cc1OCC(=O)NCCCC [Compound 2] |  |  |  |  | soluble | P | S | S | pG | S | I | I | I | I | I | P | P | P |
